From BindingDB's records for doi:10.1021/acsmedchemlett.7b00140 (Pfizer, 2017)

Molecular target: Small conductance calcium-activated potassium channel protein 2, KCNN2 (Homo sapiens) (UniProt Q9H2S1)
Test: Binding affinity to SK2 (unknown origin)

Small conductance calcium-activated potassium channel protein 2, KCNN2 (Homo sapiens), sequence (Q9H2S1 whole entry, looked up): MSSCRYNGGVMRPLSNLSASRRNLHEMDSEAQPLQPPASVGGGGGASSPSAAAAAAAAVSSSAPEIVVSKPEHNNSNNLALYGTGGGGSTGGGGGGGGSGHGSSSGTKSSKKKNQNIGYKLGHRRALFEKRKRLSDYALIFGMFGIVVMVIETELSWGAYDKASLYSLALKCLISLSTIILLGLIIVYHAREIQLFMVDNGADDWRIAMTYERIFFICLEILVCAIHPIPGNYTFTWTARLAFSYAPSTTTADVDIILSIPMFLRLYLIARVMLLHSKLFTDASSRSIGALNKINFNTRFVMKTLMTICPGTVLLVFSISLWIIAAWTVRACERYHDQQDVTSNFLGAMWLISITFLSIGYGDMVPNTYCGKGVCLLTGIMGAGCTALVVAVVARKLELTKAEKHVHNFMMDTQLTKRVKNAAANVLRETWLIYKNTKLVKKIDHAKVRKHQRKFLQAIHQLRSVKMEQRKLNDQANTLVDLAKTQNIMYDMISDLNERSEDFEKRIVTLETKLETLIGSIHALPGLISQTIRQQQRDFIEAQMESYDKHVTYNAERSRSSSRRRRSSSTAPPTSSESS

EC50	Compound
> 10 µM	FC(F)(F)c1ccc2c(Nc3ccc(Cl)nc3)n[nH]c2c1
> 10 µM	N#Cc1ccc(-c2n[nH]c3cc(OC(F)(F)F)ccc23)cc1
